Results: PMC12121626, “Synthesis, characterization and biological activity of methotrexate-derived salts in lung cancer cells” (RSC Medicinal Chemistry, 2025)
≈ marks a conversion by molar mass, not a printed value. Read-outs that look alike come from different tables or passages of the source.

Columns and labels:
[1] = test system: A549 cells; test: Evaluation of apoptosis, annexin V/PI double staining, flow cytometry; format: cell-based, human; settings: A549, 48 h of exposure to IC50 (DOX 1.5 μM)
Procedure: A549 cells were seeded on 6-well plates at a density of 2 × 10^5 cells per well and incubated for 48 h with the IC50 of salts ([C12mim]2[MTX], [C10mim]2[MTX], and [C10-3-picoline]2[MTX]) previously determined. Doxorubicin (1.5 μM) was used as a positive control and 0.1% (v/v) DMSO as a vector control. Cells were then detached from the wells and double stained using dead cell apoptosis annexin V (Thermo Fisher Scientific) according to the manufacturer's instructions. The percentage of live cells (unstained), cells in initial apoptosis (stained with annexin V-Alexa Fluor 488), cells in late apoptosis (double stained with annexin V-Alexa Fluor 488 and propidium iodide), or cells in necrosis (stained with propidium iodide) were quantified using an Attune acoustic focusing flow cytometer and the respective software (Thermo Fisher Scientific).
Cellular apoptosis is a process that leads to cell death. Using annexin V and propidium iodide (PI), cells could be divided into live cells, early apoptotic cells, late apoptotic cells, or necrotic cells, based on the differences in plasma membrane of these different stages. PI only enters cells with a permeabilized and/or compromised membrane (late apoptotic and necrotic cells, respectively), while annexin V-FITC binds to phosphatidylserine that translocates from the inner side of the plasma membrane to the outer side, staining cells in initial/late apoptosis.[31]

[2] = Solubility in water, visually determined
Procedure: To study the solubility and stability of the MTX salts, two different assays were performed. To measure the solubility, 1 μL of water was added dropwise to 1 mg of MTX salt and the solubility was visually determined.

[3] = set-up: method as in PMID 23292116; settings: low solubility and low permeability; cited from earlier work
[4] = UV-vis spectroscopy stability assay in DMEM biological medium; format: physicochemical; settings: 48 h period of the biological assays
[5] = test system: A549; test: Antiproliferative activity, Cell Titer 96 Aqueous One cell proliferation assay, A549; format: cell-based, human; settings: for IC50: A549, 48 h of incubation; for SI (A549): selectivity index, IC50 fibroblasts/IC50 A549
Procedure: (§1) Primary dermal neonatal fibroblasts (PCS-201-010) and lung adenocarcinoma cell lines (A549 and H1975) were acquired from ATCC (Manassas, VA, USA). […] All experiments were conducted at 37 °C, 5% (v/v) CO2, and 99% humidity in the dark. For simplicity, the supplemented media will be referred from now on as DMEM. NSCLC cell lines used in this work represent two different cancer models with different driver mutations[27] (Table 1). […] Doxorubicin (1.5 μM) was used as a positive control and 0.1% (v/v) DMSO was used as a vector control in all biological replicates. After 48 h of incubation, cell viability was measured using the Cell Titer 96® Aqueous One solution cell proliferation assay (Promega, Madison, WI, USA) according to the manufacturer's instructions and procedures described previously.[26,28] The absorbance of the formazan produced was quantified with a Tecan microplate reader (Infinite M200 (Tecan, Mannedorf, Switzerland)) and analysis of the dose–response curves to determine the relative IC50 was performed with GraphPad Prism 8 software (GraphPad Software, La Jolla, CA, USA). The selectivity index (IC50 fibroblasts/IC50 lung cancer cell line) was used as a measurement of the specificity of MTX salts for lung cancer cells.

[6] = set-up: method as in doi:10.1016/j.trac.2017.09.009; settings: cited from earlier work
[7] = test system: normal primary human dermal fibroblast; test: Cytotoxic effect in normal cells, Cell Titer 96 Aqueous One cell proliferation assay, fibroblasts; format: cell-based; settings: 48 h of incubation
Procedure: as §1

[8] = test system: H1975; test: Antiproliferative activity, Cell Titer 96 Aqueous One cell proliferation assay, H1975; format: cell-based, human; settings: for IC50: H1975, 48 h of incubation; for SI (H1975): selectivity index, IC50 fibroblasts/IC50 H1975
Procedure: as §1

COc1cccc2c1C(=O)c1c(O)c3c(c(O)c1C2=O)C[C@@](O)(C(=O)CO)C[C@@H]3O[C@H]1C[C@H](N)[C@H](O)[C@H](C)O1 [DOX, Doxorubicin, reference compound]
Early apoptosis [1]: 9.3 ± 7.1%
Late apoptosis [1]: 65.25 ± 30.4%
Live cells [1]: 1.7 ± 1.8%
Necrosis [1]: 23.7 ± 26.0%

CN(Cc1cnc2nc(N)nc(N)c2n1)c1ccc(C(=O)N[C@@H](CCC(=O)O)C(=O)O)cc1 [MTX, Methotrexate]
Solubility [2]: 0.01 mg/mL (≈ 22 µM)
Class in the biopharmaceutical classification system [3]: class IV
Stability in DMEM biological medium [4]: stability was retained
IC50 ([5]; Homo sapiens): > 50 µM
pKa (first acidic proton, carboxylic acid) [6]: 2.9
pKa (second acidic proton, carboxylic acid) [6]: 4.6

CCn1cc[n+](C)c1.CCn1cc[n+](C)c1.CN(Cc1cnc2nc(N)nc(N)c2n1)c1ccc(C(=O)NC(CCC(=O)[O-])C(=O)[O-])cc1 (stereo not drawn) [[C2MIM]2[MTX]]
Solubility ([2]; in water at room temperature): 500.0 mg/mL
IC50 [5]: > 50 µM

CCn1cc[n+](C)c1 [[C2MIM][Br], reference compound]
IC50 [5]: > 50 µM

Cc1ccc[n+](CCO)c1 [[C2OH 3-picoline][Br], reference compound]
IC50 [5]: > 50 µM

CN(Cc1cnc2nc(N)nc(N)c2n1)c1ccc(C(=O)N[C@@H](CCC(=O)[O-])C(=O)[O-])cc1.Cc1ccc[n+](CCO)c1.Cc1ccc[n+](CCO)c1 [[C2OH-3-picoline]2[MTX]]
Solubility ([2]; in water at room temperature): 192.3 mg/mL
IC50 [5]: > 50 µM

CN(Cc1cnc2nc(N)nc(N)c2n1)c1ccc(C(=O)NC(CCC(=O)[O-])C(=O)[O-])cc1.C[n+]1ccn(CCO)c1.C[n+]1ccn(CCO)c1 (stereo not drawn) [[C2OHmim]2[MTX]]
Solubility ([2]; in water at room temperature): 476.2 mg/mL
IC50 [5]: > 50 µM

C[n+]1ccn(CCO)c1 [[C2OHmim][Br], reference compound]
IC50 [5]: > 50 µM

CCCCCCn1cc[n+](C)c1.CCCCCCn1cc[n+](C)c1.CN(Cc1cnc2nc(N)nc(N)c2n1)c1ccc(C(=O)NC(CCC(=O)[O-])C(=O)[O-])cc1 (stereo not drawn) [[C6mim]2[MTX]]
IC50 [5]: > 50 µM

CCCCCCCCn1cc[n+](C)c1.CCCCCCCCn1cc[n+](C)c1.CN(Cc1cnc2nc(N)nc(N)c2n1)c1ccc(C(=O)NC(CCC(=O)[O-])C(=O)[O-])cc1 (stereo not drawn) [[C8mim]2[MTX]]
IC50 [5]: > 50 µM

CCCCCCCCCC[n+]1cccc(C)c1.CCCCCCCCCC[n+]1cccc(C)c1.CN(Cc1cnc2nc(N)nc(N)c2n1)c1ccc(C(=O)N[C@@H](CCC(=O)[O-])C(=O)[O-])cc1 [[C10-3-picoline]2[MTX]]
Solubility ([2]; in water at room temperature): 138.9 mg/mL
IC50 [7]: 10.6 ± 1.03 µM
IC50 [8]: 29.1 ± 1.46 µM
SI (H1975) [8]: 0.4
Early apoptosis [1]: 14.9 ± 6.5%
Late apoptosis [1]: 9.4 ± 5.6%
Live cells [1]: 75.3 ± 3.0%
Necrosis [1]: 0.02 ± 0.02%
IC50 [5]: 0.94 ± 0.03 µM
IC50 in the cancer cell line relative to [Na]2[MTX] ([5]; A549, compared to [Na]2[MTX]): 4.06 fold
SI (A549) [5]: 11.3

CCCCCCCCCC[n+]1cccc(C)c1.[Br-] [[C10-3-picoline][Br], reference compound]
IC50 [7]: > 50 µM
IC50 [8]: 29.3 ± 1.47 µM
IC50 [5]: 1.03 ± 0.01 µM
SI (A549) [5]: 48.5

CCCCCCCCCCn1cc[n+](C)c1.CCCCCCCCCCn1cc[n+](C)c1.CN(Cc1cnc2nc(N)nc(N)c2n1)c1ccc(C(=O)N[C@@H](CCC(=O)[O-])C(=O)[O-])cc1 [[C10mim]2[MTX]]
Solubility ([2]; in water at room temperature): 312.5 mg/mL
IC50 [7]: 7.61 ± 0.88 µM
IC50 [8]: 14.9 ± 1.17 µM
SI (H1975) [8]: 0.5
Early apoptosis [1]: 14.9 ± 5.0%
Late apoptosis [1]: 10.7 ± 8.1%
Live cells [1]: 73.2 ± 5.0%
Necrosis [1]: 1.1 ± 1.8%
IC50 [5]: 1.71 ± 0.23 µM
SI (A549) [5]: 4.5

CCCCCCCCCCn1cc[n+](C)c1.[Br-] [[C10mim][Br], reference compound]
IC50 [7]: > 50 µM
IC50 [8]: 19.2 ± 1.28 µM
IC50 [5]: 1.1 ± 0.02 µM
SI (A549) [5]: 45.5

CCCCCCCCCCCCn1cc[n+](C)c1.CCCCCCCCCCCCn1cc[n+](C)c1.CN(Cc1cnc2nc(N)nc(N)c2n1)c1ccc(C(=O)N[C@@H](CCC(=O)[O-])C(=O)[O-])cc1 [[C12mim]2[MTX]]
Solubility ([2]; in water at room temperature): 238.1 mg/mL
IC50 [8]: 2.72 ± 0.43 µM
SI (H1975) [8]: 0.6
Early apoptosis [1]: 16.7 ± 7.3%
Late apoptosis [1]: 10.2 ± 8.3%
Live cells [1]: 72.9 ± 4.1%
Necrosis [1]: 0.1 ± 0.2%
IC50 [5]: 0.55 ± 0.25 µM
SI (A549) [5]: 2.9

CCCCCCCCCCCCn1cc[n+](C)c1.[Br-] [[C12mim][Br], reference compound]
IC50 [7]: 8.3 ± 0.92 µM
IC50 [8]: 10.2 ± 1.01 µM
SI (H1975) [8]: 0.8
IC50 [5]: 0.6 ± 0.21 µM
SI (A549) [5]: 13.83

CN(Cc1cnc2nc(N)nc(N)c2n1)c1ccc(C(=O)N[C@@H](CCC(=O)[O-])C(=O)[O-])cc1.C[N+](C)(C)CCO.C[N+](C)(C)CCO [[Choline]2[MTX]]
Increase in solubility in water [2]: 10 fold
Solubility [2]: 1087.0 mg/mL
IC50 [5]: > 50 µM

C[N+](C)(C)CCO.[Cl-] [[Choline][Cl], reference compound]
IC50 [5]: > 50 µM

CN(Cc1cnc2nc(N)nc(N)c2n1)c1ccc(C(=O)NC(CCC(=O)[O-])C(=O)[O-])cc1.Cn1cc[n+](CCCCCCCCCCCCn2cc[n+](C)c2)c1 (stereo not drawn) [[MIMC12MIM][MTX]]
IC50 [5]: 12.4 ± 1.09 µM

CCCCCCCCCC[N+](C)(C)CCO.CCCCCCCCCC[N+](C)(C)CCO.CN(Cc1cnc2nc(N)nc(N)c2n1)c1ccc(C(=O)N[C@@H](CCC(=O)[O-])C(=O)[O-])cc1 [[N10,1,1,2OH]2[MTX]]
IC50 [5]: 19.2 ± 1.28 µM

CCCCCCCCCCCC[N+](C)(C)CCO.CCCCCCCCCCCC[N+](C)(C)CCO.CN(Cc1cnc2nc(N)nc(N)c2n1)c1ccc(C(=O)NC(CCC(=O)[O-])C(=O)[O-])cc1 (stereo not drawn) [[N12,1,1,2OH]2[MTX]]
IC50 [5]: 8.55 ± 0.93 µM

CN(Cc1cnc2nc(N)nc(N)c2n1)c1ccc(C(=O)N[C@@H](CCC(=O)[O-])C(=O)[O-])cc1.[Na+].[Na+] [[Na]2[MTX]] [reference compound]
Solubility ([2]; in water at room temperature): 99.0 mg/mL
IC50 [7]: > 50 µM
IC50 [8]: > 50 µM
IC50 [5]: 3.82 ± 0.58 µM
